This is an account of results in the METLIN SMRT retention time set (Domingo-Almenara et al. 2019).

SMILES strings stand for the structures.

The data set can be described thus: gradient 5% acetonitrile 3 min, to 50% in 2 min, to 85% in 15 min, held 3 min, 100 µL/min. The note with it: column: Zorbax Extend-C18 2.1 x 50 mm; eluents: water / acetonitrile, 0.1% formic acid. In a few lines: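 The system's dead and dwell volumes were 40 μL and 900 μL, with a Zorbax Extend-C18 column (2.1 × 50 mm, 1.8 μm) run at 100 μL/min in water and acetonitrile containing 0.1% formic acid each. Pure standards were analyzed in mixtures of ~100 molecules by HPLC–quadrupole time-of-flight mass spectrometry in positive and negative ionization mode. Retention time was assigned from computationally picked, manually inspected adduct peaks.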
In the case of `O=C([C@@H]1C[C@H](F)CN1S(=O)(=O)c1cccc(C(F)(F)F)c1)N1CCCCC1`, the RP-LC retention time is 878 s.

`CCCCn1cc(S(=O)(=O)NCc2cccc(C)c2)c2cccnc21`: the RP-LC retention time was 1000 s.

On to `CCc1noc(COC2CCCN(C(=O)NCCc3ccccc3)C2)n1` (stereo not given), for which the RP-LC retention time amounted to 796 s.

The compound `O=C(NCc1ccc(F)cc1)C1CCN(S(=O)(=O)c2cc(C(=O)N3CCOCC3)cs2)CC1` displayed an RP-LC retention time of 739 s.

As to `CC1CCc2onc(C(=O)N3CCN(Cc4ccc5c(c4)OCO5)CC3)c2C1` (stereo not given), the RP-LC retention time is 667 s.

Regarding `COc1ccc(-c2nc3cccnc3n2C2CCN(S(=O)(=O)Cc3ccccc3)C2)cc1` (stereo not given), the RP-LC retention time was found to be 874 s.

Regarding `Cn1cnc(S(=O)(=O)N2CCC(Cc3nncn3Cc3ccccc3)CC2)c1`, the RP-LC retention time is 618 s.

`Cc1nnc(-c2cn(CC(=O)NCCCc3ccccc3)c3ccccc23)o1` displayed an RP-LC retention time of 827 s.

Regarding `CCOc1ccc(-c2nc(-c3ccc4c(c3)oc(=O)n4C(C)C)no2)cc1`, the RP-LC retention time worked out at 1230 s.

In turn, `Cc1cc(C)c2c(N)c(C(=O)c3ccccn3)sc2n1` gave an RP-LC retention time of 739 s.

`O=C(NCCc1cccs1)C1CCCN(c2nc3ccsc3c(=O)n2Cc2ccccc2)C1` (stereo not given) showed an RP-LC retention time of 949 s.

For `Cc1ccc(CNC(=O)C2CCN(S(=O)(=O)c3cc(C(=O)N(C)C)cs3)CC2)o1`, the RP-LC retention time stood at 708 s.

Turning to `COc1ccc(NC(=O)N2c3ccccc3CC2c2nc(C3CC3)no2)c(OC)c1` (stereo not given), the RP-LC retention time came to 1030 s.

As for `O=C(Cn1cccc(-c2nc(-c3ccc(F)cc3)no2)c1=O)NC1CCCCC1`, the RP-LC retention time is 834 s.

Compound `Cc1ccc(N2CC(c3nc(-c4ccc5c(c4)nc(C)c(=O)n5C)no3)CC2=O)cc1C` (stereo not given) returned an RP-LC retention time of 876 s.

In turn, `CSc1nnc(Cn2c(=O)sc3ccccc32)n1-c1cccc(C(F)(F)F)c1` came in with an RP-LC retention time of 824 s.

The compound `CCN1CCN(CCNC(=O)C2CCCN(c3nc4cccnc4s3)C2)CC1` (stereo not given) had an RP-LC retention time of 562 s.

`CNc1nc(Nc2ccccc2OC)nc2ccccc12` registered an RP-LC retention time of 659 s.

The compound `COc1ccc(Cl)cc1N1CC(c2nc(-c3ccc4c(c3)OCO4)no2)CC1=O` (stereo not given) had an RP-LC retention time of 941 s.

In the case of `COc1cc(OC)c(NC(=O)c2cc3c(=O)oc4ccccc4c3n2C)cc1Cl`, the RP-LC retention time amounted to 1030 s.

`CCc1nnc(-c2ccc3ccn(CC(=O)NCc4ccccc4OC)c3c2)o1` gave an RP-LC retention time of 851 s.

`O=C(Nc1ccccc1F)c1c(O)c2cccnc2n(-c2ccc(F)cc2)c1=O` yielded an RP-LC retention time of 1220 s.

For the compound `CSc1cccc(NC(=O)Cn2cnc3c(-c4ccncc4)nsc3c2=O)c1`, the RP-LC retention time amounted to 668 s.

As to `CCc1cccc(C)c1NC(=O)Cn1ncc2c(N3CCN(c4ccccn4)CC3)ncnc21`, the RP-LC retention time amounted to 570 s.

With `Cc1ccc2c(C)nc(Nc3ncc4c(n3)CCCC4=O)nc2c1`, the RP-LC retention time was 598 s.

With `COc1ccc(C2C(=O)N(C3CCCCC3)CC(=O)N2Cc2cccs2)cc1OC` (stereo not given), the RP-LC retention time came out at 882 s.

In turn, `CN1C(=O)C2CCCCN2c2ccc(C(=O)N3CCC(Cc4ccccc4)CC3)cc21` (stereo not given) returned an RP-LC retention time of 1110 s.

As to `Cc1ccc2[nH]cc(CCNC(=O)c3cc(-c4cccnc4)nc4ccccc34)c2c1`, the RP-LC retention time was determined as 784 s.

Take `COc1ccc(NC(=O)Cn2c(N3CCCCC3)nc(C)cc2=O)cc1`: the RP-LC retention time was determined as 661 s.

Take `CS(=O)(=O)N1CCC(C(=O)Nc2ccc(Cl)cc2)Oc2ccccc21` (stereo not given): the RP-LC retention time is 924 s.

Consider `CCCCCNC(=O)c1ccc2nc(CCc3ccc(NC(=O)C(C)C)cc3)[nH]c2c1`, for which the RP-LC retention time was found to be 689 s.

Compound `Cc1cc(=O)n(CC(=O)Nc2ccccc2Cl)c(N2CCOCC2)n1` gave an RP-LC retention time of 863 s.

In turn, `CS(=O)(=O)N1CCCN(C(=O)Nc2ccccc2)CCNC(=O)CC1c1ccccc1` (stereo not given) gave an RP-LC retention time of 698 s.

`CCCNC(=O)N1CCC(N2CCN(Cc3ccccc3)C(=O)C2=O)CC1` came in with an RP-LC retention time of 653 s.

On to `O=C(Nc1ccccc1)c1cc(C2CC2)n2nccc2n1`, for which the RP-LC retention time was determined as 957 s.

For the compound `CCC(=O)N1CCc2cc(C(=O)NCCC3=CCCCC3)ccc21`, the RP-LC retention time worked out at 891 s.

Compound `CCN(CC)C(=O)N1CC(n2cc(C(=O)N3CCCC3)nn2)C1` gave an RP-LC retention time of 646 s.

`Cc1ccc(-c2noc(-c3nnn4c3COC(c3ccc(Cl)cc3)C4)n2)cc1` (stereo not given) showed an RP-LC retention time of 1310 s.

Regarding `CNC(=O)c1cc(=O)[nH]c2c(Cl)cccc12`, the RP-LC retention time amounted to 596 s.

For `Cc1ccc(-c2noc(CN3C(=O)COc4cc(Cl)ccc43)n2)cc1C`, the RP-LC retention time came to 1200 s.

Take `Cn1c(CNC(=O)c2ccc3c(c2)N(S(C)(=O)=O)CC3)nc2ccccc21`: the RP-LC retention time came out at 604 s.

The compound `CCN(CC)c1ncc2c(n1)CCC(C(=O)Nc1ccc(N3CCOCC3)cc1)C2` (stereo not given) had an RP-LC retention time of 641 s.

In the case of `O=C(Nc1cccc(Cl)c1)C1CCN(S(=O)(=O)c2cc(C(=O)N3CCOCC3)cs2)CC1`, the RP-LC retention time was 850 s.

`CC(=O)N1CCCC1c1nc2ccccc2n1CC(=O)N1CCC(C)CC1` (stereo not given): the RP-LC retention time amounted to 567 s.

For `CC(=O)c1ccc(NC(=O)c2nc(N3CCCC3)c3c(C)cc(C)nc3n2)cc1`, the RP-LC retention time was 646 s.

`CCN(CC)CCNC(=O)CN1N=C(c2ccc(Cl)cc2)CCC1=O` yielded an RP-LC retention time of 625 s.

`Cc1sc(-c2ccn[nH]2)cc1NC(=O)c1cccc(N(C)C)c1` gave an RP-LC retention time of 995 s.

`CCc1nnc([C@@H]2CC(F)(F)CN2C(=O)CCn2cccn2)o1`: the RP-LC retention time was 639 s.

`CCc1nnc(-c2ccc3ccn(CC(=O)N4CCC5(CC4)OCCO5)c3c2)o1`: the RP-LC retention time came to 722 s.

Regarding `CC1(C)CC(=O)c2cnc(N3CCN(c4ccccn4)CC3)nc2C1`, the RP-LC retention time was 621 s.

Take `O=C(c1ccc(F)c(F)c1)N1CCN(S(=O)(=O)c2cc3c4c(c2)CCC(=O)N4CCC3)CC1`: the RP-LC retention time worked out at 807 s.

`O=C(Cc1csc2nc(-c3cccc(Br)c3)cn12)NCc1ccc2c(c1)OCO2` came in with an RP-LC retention time of 869 s.

On to `Cc1nnc(-c2ccc3ccn(CC(=O)NCc4ccccc4Cl)c3c2)o1`, for which the RP-LC retention time was 779 s.

The compound `CCCn1cc(C(=O)NCc2ccc3c(c2)OCO3)c2cccnc21` returned an RP-LC retention time of 758 s.

Turning to `Cn1cnc2ccc(-c3noc(CCc4c[nH]c5ccccc45)n3)cc21`, the RP-LC retention time was determined as 731 s.

`COc1ccc2cc(C(=O)N3CCC(CC(=O)NC4CC4)CC3)[nH]c2c1` showed an RP-LC retention time of 690 s.

Take `O=C(NCc1ccccc1F)c1cn(-c2cc(N3CCOCC3)ncn2)cn1`: the RP-LC retention time was 758 s.

For the compound `COc1cc(OC)c(N(C)C(=O)C2CCCN(c3ncnc4c3nc3n4CCCCC3)C2)cc1Cl` (stereo not given), the RP-LC retention time was determined as 854 s.

`CC(C)n1cnc(S(=O)(=O)N2CCC(C(=O)Nc3ccc(F)c(Cl)c3)CC2)c1` returned an RP-LC retention time of 834 s.

The compound `COc1ccccc1N1CCN(c2cc(SCC(=O)Nc3cc(C)ccc3C)ncn2)CC1` displayed an RP-LC retention time of 1070 s.

`O=C1NC2(CCN(C(=O)c3cc(F)cc(F)c3)CC2)Nc2c(Cl)cccc21` came in with an RP-LC retention time of 760 s.

Compound `Cc1ccc(-c2nc3cnccn3c2NCCC(=O)NC2CC2)cc1` had an RP-LC retention time of 616 s.

As to `COc1ccc2c(C)c(CC(=O)N3CCC(C(N)=O)CC3)c(=O)oc2c1C`, the RP-LC retention time came out at 661 s.

The compound `CCc1nc(-c2csc(S(=O)(=O)N3CCCC(C(=O)Nc4ccccc4OC)C3)c2)no1` (stereo not given) showed an RP-LC retention time of 1060 s.

In turn, `COc1ccc(C)cc1NC(=O)c1cc(C)n2nc(C)cc2n1` registered an RP-LC retention time of 1040 s.
